Measured values taken from ChEMBL document CHEMBL5050843, “Amide substituted thiazoles as protein secretion inhibitors” (2019).

Legend:
[1] = Inhibition of constitutively active VCAMss-Gluc secretion in human Flp-In-T-REx-293 cells at 2.5 uM measured by Gaussia luciferase reporter gene method relative to control; type: functional
[2] = Inhibition of TNF-alpha-FL-Gluc secretion in doxycyclin-induced human Flp-In-T-REx-293 cells at 2.5 uM measured by Gaussia luciferase reporter gene method relative to control; type: functional
[3] = Inhibition of constitutively active VCAMss-Gluc secretion in human Flp-In-T-REx-293 cells measured by Gaussia luciferase reporter gene method; type: functional, cell-based
[4] = Inhibition of VCAMss-Gluc secretion in doxycyclin-induced human Flp-In-T-REx-293 cells measured by Gaussia luciferase reporter gene method; type: functional, cell-based
[5] = Inhibition of PD1ss-Gluc secretion in doxycyclin-induced human Flp-In-T-REx-293 cells measured by Gaussia luciferase reporter gene method; type: functional, cell-based
[6] = Inhibition of constitutively active PR1ss-Gluc secretion in human Flp-In-T-REx-293 cells measured by Gaussia luciferase reporter gene method; type: functional, cell-based
[7] = Inhibition of PR1ss-Gluc secretion in doxycyclin-induced human Flp-In-T-REx-293 cells measured by Gaussia luciferase reporter gene method; type: functional, cell-based
[8] = Inhibition of TNF-alpha-FL-Gluc secretion in doxycyclin-induced human Flp-In-T-REx-293 cells measured by Gaussia luciferase reporter gene method; type: functional, cell-based
[9] = Inhibition of VCAMss-Gluc secretion in doxycyclin-induced human HEK293 cells measured by Gaussia luciferase reporter gene method; type: functional, cell-based
[10] = Inhibition of VCAM expression in human Flp-In-T-REx-293 cells measured by cellular VCAMss-Gluc assay; type: functional, cell-based
[11] = Inhibition of VCAM expression in doxycyclin-induced human HEK293-T-REx cells measured by Gaussia luciferase reporter gene method; type: functional, cell-based
[12] = Inhibition of HER3 expression in doxycyclin-induced human HEK293-T-REx cells measured by Gaussia luciferase reporter gene method; type: functional, cell-based
[13] = Inhibition of TLR9 expression in doxycyclin-induced human HEK293-T-REx cells measured by Gaussia luciferase reporter gene method; type: functional, cell-based
[14] = Inhibition of ROS1 expression in doxycyclin-induced human HEK293-T-REx cells measured by Gaussia luciferase reporter gene method; type: functional, cell-based
[15] = Inhibition of PD1 expression in doxycyclin-induced human HEK293-T-REx cells measured by Gaussia luciferase reporter gene method; type: functional, cell-based

| Structure (SMILES) | inhibition at 2.5 µM [1] [%] | inhibition at 2.5 µM [2] [%] | IC50 [3] [µM] | IC50 [4] [µM] | IC50 [5] [µM] | IC50 [6] [µM] | IC50 [7] [µM] | also measured |
| --- | --- | --- | --- | --- | --- | --- | --- | --- |
| CC(C)(C)c1csc(NC(=O)c2cccs2)n1 | 23 | 24 | – | – | – | – | – | – |
| CC(C)(C)c1csc(NC(=O)c2cc3cc(-c4ccccc4Cl)ccc3s2)n1 | – | – | 4.11 | 9.53 | 3.87 | > 25 | > 25 | – |
| CCCC(C)(C)c1csc(NC(=O)Cc2csc3ccc(Cl)cc23)n1 | – | – | 1 | 0.744 | 1.75 | > 25 | > 25 | – |
| CC(C)(C)c1csc(NC(=O)Cc2cn(Cc3ccc(F)cc3)c3ccccc23)n1 | – | – | 2.11 | 1.14 | 12.9 | > 25 | > 25 | – |
| CCC(C)(C)c1csc(NC(=O)Cc2csc3ccc(Cl)cc23)n1 | – | – | 1.23 | 0.826 | 2.75 | > 25 | > 25 | – |
| CC(C)(C)c1csc(NC(=O)Cc2cn(Cc3ccccc3)c3ccc(Cl)cc23)n1 | – | – | 0.506 | 0.587 | 4.25 | > 25 | > 25 | IC50 [8]: 13.1 µM |
| CC(C)(C)c1csc(NC(=O)Cc2csc3ccc(Cl)cc23)n1 | – | – | 0.915 | 1.11 | 5.37 | > 25 | > 25 | IC50 [8]: > 25 µM |
| O=C(NC1NC(c2ccccc2)=NS1)N1CCOc2ccc(Cl)cc2C1 (stereo unspecified) | – | – | – | – | – | – | – | IC50 [9]: 22.1 µM |
| Cc1cc(C(=O)Nc2nc(C(C)(C)C)cs2)cs1 | – | – | 12.5 | 19.1 | 9.84 | > 25 | > 25 | IC50 [8]: > 25 µM; IC50 [9]: 3.3 µM |
| CC(C)(C)c1csc(NC(=O)Cc2csc3ccc(C#N)cc23)n1 | – | – | 1.25 | 1.56 | 7.82 | > 25 | > 25 | – |
| CC(C)(C)c1csc(NC(=O)c2cc3c(s2)CCNC3)n1 | 0 | 0 | – | – | – | – | – | – |
| CC(C)(C)c1csc(NC(=O)C(Cc2ccccc2)c2cn(Cc3ccccc3)c3ccc(Cl)cc23)n1 (stereo unspecified) | – | – | – | – | > 25 | – | > 25 | IC50 [8]: > 25 µM; IC50 [10]: > 25 µM |
| CC(C)(C)c1csc(NC(=O)c2ccc(Cl)cc2)n1 | 66 | 0 | – | – | – | > 25 | – | – |
| CCOC(C)(C)c1csc(NC(=O)Cc2cn(Cc3ccccc3Cl)c3ccc(Cl)cc23)n1 | – | – | – | – | 0.968 | – | > 25 | IC50 [8]: 24.4 µM; IC50 [10]: 1 µM; IC50 [11]: < 5 µM; IC50 [12]: < 5 µM; IC50 [13]: < 5 µM; IC50 [14]: < 5 µM; IC50 [15]: < 5 µM |
| Cc1ccc2scc(CC(=O)Nc3nc(C(C)(C)C)cs3)c2c1 | – | – | 1.63 | 2.24 | 8.27 | > 25 | > 25 | – |
| CC(C)(C)c1csc(NC(=O)c2cc3c(s2)CCN(Cc2ccccc2)C3)n1 | 33 | 22 | – | – | – | – | – | – |
| COc1ccc2[nH]c(-c3ccc(C(=O)Nc4nc(C(C)(C)C)cs4)s3)cc2c1 | 42 | 27 | – | – | – | – | – | – |
| COc1ccc2c(c1)cc(-c1ccc(C(=O)Nc3nc(C(C)(C)C)cs3)s1)n2C(=O)OC(C)(C)C | 56 | 0 | – | – | – | – | – | – |
| CC(C)(C)c1csc(NC(=O)c2cc3cc(C#N)ccc3s2)n1 | – | – | > 25 | > 25 | > 25 | > 25 | > 25 | – |
